Test results as given in patent US9150608B2, “Neuro-protective compounds and their use” (Biotechnology Research Corp. Ltd., priority 2010, dated 2015).

How the values were obtained:
[1] = system: Aβ25-35-treated primary cortical neurons; assay: Cortical neuron survival assay with amyloid-beta peptide insult (MTT); assay type: cell-based, rat; conditions: for cell survival of cortical neurons treated with Aβ25-35 (MTT): 50 μM, except GAG-C69 at 30 μM, Aβ25-35 10 μM (FIG. 19)
Protocol: FIG. 4. […] After overnight incubation, the MTT assay was performed. Cell survival was calculated as a percentage compared to vehicle control (“CTL no Abeta”).
Exogenous addition of amyloid beta peptide (Aβ) initiates cell death of neuronal cultures via apoptosis.
The cells were then incubated with test samples and amyloid-beta peptide fragment 25-35 (Aβ, 10 μM, Sigma) in growth medium. A tetrazole, 3-(4,5-Dimethylthiazol-2-yl)-2,5-diphenyltetrazolium bromide (MTT, 5 mg/ml) was added to the medium at a ratio of 1:10 after 24-hr incubation. MTT is reduced by living cells into purple formazan and further solubilized in 20% SDS solution; therefore, the colored solution was measured by spectrophotometer and cell viability was quantified.

cleaved-caspase-3 = assay: Caspase-3 expression in cortical neurons in the presence of amyloid-beta peptide (Western blot); assay type: cell-based, rat; conditions: 10-50 μg/mL in the presence of Aβ25-35 (10 μM), overnight
Protocol: FIG. 5. Adelostemma gracillimum refined fraction inhibits caspase-3 production in primary cortical neurons induced by Aβ. Primary cortical neuron cultures (7DIV) were treated with various concentrations of AG-0 (10-50 μg/mL) in the presence of Aβ25-35 (10 μM). Proteins were extracted after overnight incubation and Western blot analysis was performed. Blots were probed with antibodies against caspase-3 and ERK protein. Staurosporine (STS, 10 μM) was used as a positive control, while DMSO served as the vehicle control.
The cells were then incubated with test samples and amyloid-beta peptide fragment 25-35 (Aβ, 10 uM, Sigma) in growth medium.

[2] = system: cyclic AMP response (CRE) element; assay: CRE-dependent transcription assay (luciferase); assay type: cell-based, rat; conditions: hippocampal neurons 12DIV, 50 μM, 6 hours
Protocol: FIG. 41. GAG compounds enhance CRE-dependent transcription activity. GAG-C14 (a), GAG-C53 (b), GAG-C63 (c), GAG-C69 (d), GAG-C84 (e), GAG-C111 (f), GAG-C122 (g), GAG-C123 (h), and GAG-C129 (i) induce CRE-dependent transcriptional activity in cultured hippocampal neurons. On the day of cell seeding, hippocampal neurons were transfected with a firefly luciferase reporter plasmid containing cyclic AMP response (CRE)-element. The cells at 12 DIV were then treated with 50 μM of AG compounds for 6 hours. Data are mean±SEM (n=3-4), *=P<0.05, **=P<0.01, and ***=P<0.005 versus vehicle-treated cells (0 μM), student's t test.
Cultured hippocampal neurons were transfected with a firefly luciferase reporter plasmid containing a cyclic AMP response (CRE) element. At 12DIV, the cells were treated with 50 μM of compound for 6 hours, then CRE-dependent transcription activity was assayed by measuring luciferase levels.
Freshly isolated embryonic cortical neurons were transfected with a luciferase reporter gene (Cre-Luc) linked to CREB activation following the ACM lipofectamine method using Lipofectamine 2000, a cationic liposome based reagent (Invitrogen). […] Transfection was performed using 1 μL Lipofectamine 2000 and 0.4 μg DNA per well. Neurons were then treated with test samples for time periods of 6 hours. After treatment, the cells were washed with ice-cold DPBS and 100 μL of 1× luciferase lysis buffer (Promega) was added. The plates were placed in −20° C. to freeze the cells, after which they were thawed to facilitate lysis. The lysates were transferred onto white bottom plates and assayed for renilla luciferase using the luciferase assay kit (Promega). Increased CREB activation in the neurons leads to an enhanced luciferase production and this was quantified using a Promega GloMax™ 96 microplate luminometer. […] BDNF and rolipram were used as positive controls.

[3] = system: glutamate-induced excitotoxicity in cortical neurons; assay: Glutamate survival assay (LDH release); assay type: cell-based, rat; conditions: 30 μM; glutamate 10-200 μM, all concentrations examined
Protocol: FIG. 34. GAG-C73 decreases primary neuron cell death induced by high doses of glutamate. Cortical neurons were incubated with GAG-C73 (30 μM) or DMSO control for 2 hrs, followed by co-treatment with differing concentrations of glutamate (10-200 μM) for 20 min. LDH release into the medium was then measured.
Glutamate is the physiological neurotransmitter that activates NMDA receptors. However, excess amounts of glutamate can result in excitotoxicity and potential cell death. Survival assays were conducted to determine the ability of GAG-C73 to effectively protect neuronal cells from glutamate-induced excitotoxicity.

[4] = system: phosphorylated ERK, CREB, Akt, P38, MEK in cortical neurons; assay: Western blot detection of signaling proteins in cortical neurons; assay type: cell-based, rat; conditions: cortical neurons 7DIV, 0.1-10 μM, 15 min (FIGS. 16, 18, 20)
NMDA receptor = assay: Whole-cell patch clamp; assay type: cell-based, rat; conditions: hippocampal neurons, −70 mV
Protocol: FIG. 31. GAG-C73 inhibits NMDA-induced current in hippocampal neurons. The effects of GAG-C73 on NMDA-activated currents in rat hippocampal neurons (11DIV) were examined using whole-cell patch clamp studies. Addition of NMDA induced depolarization and initiated an inward current in pyramidal cells. A. Examples of NMDA-activated currents before, during, and after application of GAG-C73 (30 μM) are shown. Horizontal bars denote GAG-C73 application. B-C. […] DMSO was used as a solvent control. The concentration of glycine was 0.1 μM, and membrane potential was held at −70 mV. n=10; three independent experiments were performed. *=P<0.05.
The NMDA receptor is a gated ion channel, which allows inflow of current during a nerve impulse. Antagonists to the receptor would prevent the inflow of current.
Hippocampal neurons were plated onto PDL-coated 35 mm dishes (NUNC) at a density of 3×10^5 cells per plate. Half of the medium was changed with NB, B27 and […] L-glutamine every 2 to 3 days. On day 12 in vitro (12DIV), whole-cell patch clamp study was performed. […] Holding potential of patched cells was kept at −70 mV and currents were recorded using Axopatch-200B amplifier (Axon Instruments, USA). […] Data was analyzed by pClamp9 software and percentage of inhibition on NMDA-induced current was' represented in comparison to a DMSO solvent control.

[5] = system: NMDA receptor-induced excitotoxicity in primary cortical neuronal cells; assay: NMDA survival assay (LDH release)
Protocol: Embryonic rat cortical neurons (11 DIV) were pre-treated with various concentrations of AG—0 (0.1 -30 μg/mL) and then co-incubated with NMDA (20 μM). After 20 min, the medium was replaced with fresh medium, and after overnight incubation lactate dehydrogenase (LDH) released into the medium was measured. Cell death was calculated as a percentage compared to solvent control (“CTL without NMDA”). Assays were conducted in duplicate and repeated at least twice. *=P<0.05.
Cortical neurons were plated on 48-well plate (Nunc) at a density of 1.1×10^5 cells per well and cultured for 11-12 days (11-12 DIV). Neurons were pre-treated with the test compounds for 2 hours prior to N-Methyl-D-Aspartate (NMDA, Sigma) or glutamate (MSG, Sigma) treatment. Briefly, the neurons were rinsed with Locke's solution (5 mM potassium chloride, 128 mM sodium chloride, 2.7 mM calcium chloride, 1 mM di-sodium hydrogen orthophosphate, 5 mM HEPES and 10 mM glucose in Milli-Q water) without Mg^2+, followed by incubation in Locke's solution with addition of glycine (0.1 μM) for 15 minutes. After the incubation, the neurons were co-treated with the test compound (dissolved in Locke's plus glycine solution) and NMDA (20 μM) or glutamate for 20 min. Neurons were then rinsed with Locke's solution containing Mg^2+ and replaced with fresh growth medium. Cell death was assayed and quantified using the lactate dehydrogenase release assay (Cytotoxicity Detection Kit, Roche). Data was compared to a DMSO vehicle control and represented in mean±SEM. The student t-test was used for statistical analysis.

CRE-dependent transcription activity (luciferase) [2]	SMILES	cell survival of cortical neurons treated with Aβ25-35 (MTT) [1]	survival of neurons against Aβ insult (MTT) ([1]; various concentrations, Aβ25-35 10 μM)	expression level of cleaved-caspase-3 (17 kDa, active form) (cleaved-caspase-3)	cell death compared to the DMSO control (LDH) [3]	ERK phosphorylation [4]	NMDA-induced current (peak and plateau) (NMDA receptor; 30 μM co-treatment with NMDA)	NMDA-induced current with increasing doses (NMDA receptor)	cell death compared to the DMSO control (LDH) ([5]; 30 μM, NMDA 5-100 μM, at toxic dosages of NMDA)	neuronal survival following NMDA treatment (LDH) ([5]; 30-50 μM pre-treated 2 hours, NMDA 20 min (FIG. 17))	cell death compared to the DMSO control (LDH) ([5]; varying concentrations pre-treated 2 hrs, NMDA 20 μM)
enhances CRE-dependent transcription	C/C=C/c1ccc2c(c1)OC(c1ccc(O)c(OC)c1)C(C)O2 (stereo not drawn) [GAG-C69, 3-methoxyl-4-hydroxyl-(7′-E)-5′7-epoxy-8,4′-oxyneolignane-7′ en]	promoted cell survival	increases the survival of neurons against Aβ insult comparable to control levels	significantly decreased to levels comparable to that without Aβ	–	–	–	–	–	–	–
–	C=C(C)[C@@H]1CCC2(C(=O)O)CC[C@]3(C)C(=CCC4[C@@]5(C)CCC(O)[C@@](C)(CO)C5CC[C@]43C)C12 (stereo partly drawn) [GAG-C73, 3,23-dihydroxyl-12(13)-en-Lup-20(29)-en-28-oic acid]	promoted cell survival	–	–	significant reduction in cell death	induced ERK phosphorylation	reduced the current induced by NMDA, for both peak and plateau currents	further decreased the NMDA-induced current	significant reduction in cell death	promoted neuronal survival	significant dose-dependent reduction in cell death
